Test [1] has as its target T1, Dihydrofolate reductase (Escherichia coli, UniProt P0ABQ4). The test is described as follows: Thermodynamic Dissociation Constant for compound-Tyr31-dihydrofolate reductase (DHFR) complex at pH 7.
Test [2] has as its target T1, Dihydrofolate reductase. Nature of the test: Thermodynamic Dissociation Constant for compound-Val31-dihydrofolate reductase (DHFR) complex at pH 7.
Test [3] has as its target T1, Dihydrofolate reductase. The test is described as follows: Thermodynamic Dissociation Constant for compound-Phe31-dihydrofolate reductase (DHFR) complex at pH 7.
For test [4], the target named is T1, Dihydrofolate reductase. Nature of the test: Thermodynamic Dissociation Constant for compound-Tyr31-dihydrofolate reductase (DHFR) complex at pH 8.5.
Test [5] addresses T1, Dihydrofolate reductase. The test is described as follows: Thermodynamic Dissociation Constant for compound-Val31-dihydrofolate reductase (DHFR) complex at pH 8.5.
For test [6], the target named is T1, Dihydrofolate reductase. Nature of the test: Thermodynamic Dissociation Constant for compound-Phe31-dihydrofolate reductase (DHFR) complex at pH 8.5.
Test [7] has as its target T2, Dihydrofolate reductase (Escherichia coli) (UniProt P0ABQ4).
T2 sequence (whole entry): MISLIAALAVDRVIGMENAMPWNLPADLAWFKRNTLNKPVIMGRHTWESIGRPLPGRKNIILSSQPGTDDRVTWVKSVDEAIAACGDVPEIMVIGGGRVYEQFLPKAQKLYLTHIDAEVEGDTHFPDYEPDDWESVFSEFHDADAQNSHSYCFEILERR
Description: Constant, Kr at Phe-31 of dihydrofolate reductase (DHFR)

Test [8] addresses T2, Dihydrofolate reductase (Escherichia coli). The source holds these as a separate data set.
Description: Association constant(Kon) at Tyr-31 of dihydrofolate reductase (DHFR)
The target in test [9] is T1, Dihydrofolate reductase. Nature of the test: Inhibition constant for Val31-dihydrofolate reductase (DHFR)-NADPH-Compound complex.
For test [10], the target named is T2, Dihydrofolate reductase (Escherichia coli). This is another data set of the same source.
Description: Dissociation constant at(Koff) Tyr-31 of dihydrofolate reductase (DHFR)
Test [11] has as its target T3, Dihydrofolate reductase (Escherichia coli, UniProt P0ABQ4).
T3 sequence (P0ABQ4 whole entry): T2 sequence (whole entry)
Nature of the test: Inhibition constant for Phe31-dihydrofolate reductase (DHFR)-NADPH-Compound complex.

Test [12] concerns the target T1, Dihydrofolate reductase. The test is described as follows: Thermodynamic Dissociation Constant for compound-Tyr31-dihydrofolate reductase (DHFR) complex at pH 6.
Test [13] deals with T1, Dihydrofolate reductase. Nature of the test: Thermodynamic Dissociation Constant for compound-Phe31-dihydrofolate reductase (DHFR) complex at pH 6.
In test [14] the target is T2, Dihydrofolate reductase (Escherichia coli). The source holds these as a separate data set.
Description: Constant at Tyr-31(Kr) of dihydrofolate reductase (DHFR)
Test [15] has as its target T1, Dihydrofolate reductase. The test is described as follows: Inhibition constant for Tyr31-dihydrofolate reductase (DHFR)-NADPH-Compound complex.
Test [16] has as its target T2, Dihydrofolate reductase (Escherichia coli). This is another data set of the same source.
Description: Dissociation constant(Koff) at Phe-31 of dihydrofolate reductase (DHFR)

We go through 3 molecules from ChEMBL document CHEMBL1124276, “Evaluation of the importance of hydrophobic interactions in drug binding to dihydrofolate reductase” (J Med Chem, 1988).

As to `Nc1nc2ncc(CNc3ccc(C(=O)N[C@@H](CCC(=O)O)C(=O)O)cc3)nc2c(=O)[nH]1` [FOLIC ACID], the Kd amounted to 4400 nM at Dihydrofolate reductase [1], 4800 nM at Dihydrofolate reductase [2] and 810 nM on Dihydrofolate reductase [3].
`NC(=O)c1ccc[n+]([C@H]2O[C@@H](COP(=O)([O-])OP(=O)(O)OC[C@H]3O[C@@H](n4cnc5c(N)ncnc54)[C@H](OP(=O)(O)O)[C@@H]3O)[C@H](O)[C@@H]2O)c1` [NICOTINAMIDE ADENINE DINUCLEOTIDE PHOSPHATE]: the equilibrium dissociation constant (Kd) stood at 340 nM at Dihydrofolate reductase [1]; 400 nM on Dihydrofolate reductase [4]; 300 nM at Dihydrofolate reductase [5]; 220 nM at Dihydrofolate reductase [2]; 380 nM on Dihydrofolate reductase [3]; 490 nM at Dihydrofolate reductase [6].
Take `Cc1nc2nc(N)nc(N)c2nc1C`: the Kr in test [7] was determined as 24 s⁻¹; in test [14], 25 s⁻¹. Moreover, the k on in [8] worked out at 6.8e+06 M⁻¹ s⁻¹. The Ki at Dihydrofolate reductase [9] is 9100 nM; at Dihydrofolate reductase [11], 44 nM; at Dihydrofolate reductase [15], 57 nM. The k off was 25 s⁻¹ in test [10] and 35 s⁻¹ in [16]. For the same molecule, the figures for the dissociation constant Kd at Dihydrofolate reductase [12] and on Dihydrofolate reductase [13] were 3900 nM and 1600 nM, respectively.
